Experimental findings from US20230094076A1, “COMBINATION THERAPY” (GlaxoSmithKline Intellectual Property Development Limited, priority 2016, published 2023) are described below.

The experiment deals with AML cell lines. In words: Preliminary RNA-seq studies. In kind it is cell-based. Particulars: chemokines, cytokines, interferons, interleukins. From the text:
PRMT1 has been implicated in immune regulation through modulation of the TLR receptor signaling pathway, whereby PRMT1 knock-down results in increased expression of pro-inflammatory molecules (Tikhanovich, I. et al. Dynamic Arginine Methylation of Tumor Necrosis Factor (TNF) Receptor-associated Factor 6 Regulates Toll-like Receptor Signaling. J Biol Chem 290, 22236-22249, doi:10.1074.jbc.M115.653543 (2015)).

Regarding `CNCCN(C)Cc1c[nH]nc1[C@H]1CC[C@@]2(CC1)CC(C)(C)CO2` [Compound D], the “expression of immune response gene families” value is “altered expression”.
